{"source": "patent US20040234978A1", "about": "“Novel potential-dependent cation channel protein” (priority 2001, published 2004)", "test_system": "CAE9577", "experiment": "Na current measurement in CAE9577 expressed oocytes", "type": "cell-based, human", "data": [{"smiles": "NC1=N[C@H](O)[C@H]2[C@H]3O[C@]4(O)O[C@@H]([C@@H](O)[C@@]2(N1)[C@@H]4O)[C@]3(O)CO", "note": "[TTX, Tetrodotoxin]", "values": [{"measurement": "inhibition of the inward Na current", "value": "partially inhibited"}]}]}
